This note sets out measurements from paper PMC3106998, “The novel sigma-2 receptor ligand SW43 stabilizes pancreas cancer progression in combination with gemcitabine” (2010).

As usually defined, the IC50 is the point on the concentration scale where inhibition reaches its midpoint.

This test addresses T1, sigma-2 receptor (Mus musculus, UniProt Q8VD00).
T1 construct: gene Tmem97; Panc02 tumor membrane homogenates
T1 sequence (Q8VD00 1-176): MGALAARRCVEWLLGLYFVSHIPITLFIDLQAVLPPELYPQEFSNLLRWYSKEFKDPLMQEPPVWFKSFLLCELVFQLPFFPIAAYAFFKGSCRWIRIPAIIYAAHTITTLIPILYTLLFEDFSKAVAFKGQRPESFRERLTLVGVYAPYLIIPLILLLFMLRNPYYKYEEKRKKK
Briefly: radioligand competition with […]-ISO-2 in membrane homogenates. In kind it is binding.

In turn, `COc1ccc(C)cc1NC(=O)OC1CC2CCCC(C1)N2CCCCCCN` (centres unmarked) [SV119] had an IC50 of 7.8 ± 1.7 nM.
The value for `COc1ccc(C)cc1NC(=O)OC1CC2CCCC(C1)N2CCCCCCCCCCN` (centres unmarked) [SW43] was 18 ± 2.1 nM.
